Patent US6884907B2, “Hydroxamic acids and acyl hydroxamines as naaladase inhibitors” (Guilford Pharmaceuticals Inc., priority 2001, dated 2005)

How the values were obtained:
[1] = system: STZ-induced diabetic rats; assay: Neuropathic pain in STZ model (thermal nociception, Hargreaves apparatus); type: in vivo, Male Sprague-Dawley rats; conditions: 10 mg/kg i.p. daily, treatment started 45 days post-STZ, FIGS. 7A and 7B
Protocol: Male Sprague-Dawley rats (200-225 g) were rendered diabetic by intravenous administration of streptozotocin (“STZ”, 70 mg/kg in phosphate buffered saline). Diabetic animals were divided into five groups: one group receiving Compound A (10 mg/kg or 1 mg/kg), Compound D (10 mg/kg or 1 mg/kg) or vehicle. Another group of animals (non-STZ treated) served as non-diabetic controls. Drug/vehicle treatment was started in diabetic animals 45 days post-STZ administration. STZ-induced diabetic rats were tested for sensitivity to a heat source as soon as blood glucose levels rose to 320 mg/dl or above (30 days post STZ). The rats were then acclimated to a Hargreaves apparatus and thermal nociception was monitored using an infrared heat source directed into the dorsal surface of the hindpaw, and the time taken for the animal to remove its paw noted to the nearest 0.1 seconds (see Hargreaves et al., supra, for detailed experimental method). The intensity of the beam source was adjusted such that the mean latency for control animals (non-STZ treated) was approximately 10 seconds. Each animal was tested 8 times and the mean difference score (between mean non-diabetic control latency and mean diabetic latency) are graphically presented in FIGS. 7A and 7B.

[2] = system: BB/W diabetic rats; assay: Progression of neuropathic pain and nerve conduction deficits in BB/W model; type: in vivo, Male BB/W rats
Source text: Male BB/W rats (BRI, Mass) spontaneously develop a cell mediated autoimmune destruction of pancreatic B cells, resulting in onset of insulin-dependent (Type I) diabetes (Guberski 1994). […] This renders them valuable for experimental trials of new compounds for future treatments of this major disorder. In the present study, Compound D and Compound A were examined for their ability to alter the progression of diabetic neuropathy. The rats received daily injection of Compound D or Compound A (10 mg/kg i.p.) or vehicle, starting at the onset of diabetes (hyperglycemia) and up to 6 months thereafter. Another group of non-diabetic rats also receiving vehicle were tested. All animals were continuously monitored for body weight, urine volume, blood sugar and glycated haemoglobin. In the first month of the study, all animals were tested for thermal nociception in a Hargreaves apparatus, weekly. After the first month this was done biweekly and then monthly. The testing consists of directing an infrared heat source onto the dorsal surface of the rat hindpaw and noting the time taken for the animal to remove its paw (see Hargreaves et al., supra, for a description of the experimental method). Each animal was tested 8 times and the mean withdrawal latency noted.
Nerve conduction velocity was also measured every two weeks through the first eight weeks of treatment and every month thereafter through to the six months of treatment (see De Koning et al., Peptides, Vol. 8, No. 3, pp. 415-22 (1987) for a description of the experimental method). […] This was apparent starting at 8 weeks of treatment and persisted to a similar degree through to the six month termination point of the study.

[3] = system: STZ-diabetic animals; assay: Diabetic neuropathy in STZ model (nerve conduction velocity); type: in vivo, rats; conditions: either dose (1 or 10 mg/kg), versus diabetic controls, FIGS. 10A and 10B
Protocol: Motor and sensory nerve conduction velocity was also measured in STZ-diabetic animals after 4, 8 and 12 weeks of treatment (see De Koning et al., supra, for a description of the experimental method). Briefly, stimulating needle electrodes were inserted close to the sciatic and tibial nerves with recording electrodes being placed subcutaneously over the distal foot muscles, in anesthetized rats.

[4] = system: STZ-diabetic rats; assay: Reversal of diabetic neuropathy in STZ model, delayed dosing: thermal hyperalgesia; type: in vivo; conditions: for neuropathic hyperalgesia (withdrawal latency): daily p.o., treatment started 5 weeks post STZ, within two weeks of treatment, FIG. 20
Protocol: (§1) Rats (200-225 grams) were injected with STZ (70 mg/kg) into the tail vein. Diabetes (>350 mg/dl) was confirmed in all rats, 4 weeks after STZ administration. Rats were left untreated until 35-49 days after STZ. Compound D (1, 3, or 10 mg/kg), Compound E (10 mg/kg), or vehicle were dosed daily p.o. following confirmation of hyperalgesia and/or nerve conduction velocity deficits. In separate experiments, onset of treatment was delayed until 60 to 90 days after STZ administration. Nerve conduction velocity or withdrawal response to thermal stimulation of hind paws was measured at intervals, usually bi-weekly for thermal response and monthly for nerve conduction velocity.
Animals were acclimated to the apparatus for at least 5 min. An infrared source was placed under below the plantar surface of the rat hind-paw. The intensity of the source was adjusted so that latency for normal rats was about 10 secs. Animals were tested for thermal response latency according to the method of Hargreaves et al (Pain 77-88, 1988). Each animal was tested 8 times (4 each hind limb) and the latency of response recorded automatically to nearest 0.1 sec. An average of the last 4 measurements for each paw was calculated (8 total measurements) and noted for each rat.

[5] = system: STZ-diabetic rats; assay: Reversal of diabetic neuropathy in STZ model, delayed dosing: nerve conduction velocity; type: in vivo; conditions: for motor nerve conduction velocity: daily p.o., within 8 weeks of dosing, persisted through 12 weeks, FIG. 21
Protocol: as §1
Sensory and motor nerve conduction velocities were evaluated using the method of De Koning and Gispen (Peptides 8: 415-422, 1987). Electrophysiological evaluation was carried out within one hour of dosing. Animals were anesthetized with isoflurane and stimulating needle electrodes were inserted close to the sciatic nerve at the sciatic notch and the tibial nerve near the ankle. Recording electrodes were placed over the foot muscles. Stimuli were applied and responses recorded. Motor and sensory nerve conduction velocities were calculated by measuring the distance between the sciatic notch and ankle sites, and the latency between the M-wave and the H-reflex.

[6] = biological target: T1, NAALADase (Homo sapiens, UniProt Q04609); assay: In vitro inhibition of NAALADase activity; type: biochemical; conditions: average IC50 values
T1 construct: from tissue; host or cells: unspecified tissue
T1 sequence (Q04609 whole entry): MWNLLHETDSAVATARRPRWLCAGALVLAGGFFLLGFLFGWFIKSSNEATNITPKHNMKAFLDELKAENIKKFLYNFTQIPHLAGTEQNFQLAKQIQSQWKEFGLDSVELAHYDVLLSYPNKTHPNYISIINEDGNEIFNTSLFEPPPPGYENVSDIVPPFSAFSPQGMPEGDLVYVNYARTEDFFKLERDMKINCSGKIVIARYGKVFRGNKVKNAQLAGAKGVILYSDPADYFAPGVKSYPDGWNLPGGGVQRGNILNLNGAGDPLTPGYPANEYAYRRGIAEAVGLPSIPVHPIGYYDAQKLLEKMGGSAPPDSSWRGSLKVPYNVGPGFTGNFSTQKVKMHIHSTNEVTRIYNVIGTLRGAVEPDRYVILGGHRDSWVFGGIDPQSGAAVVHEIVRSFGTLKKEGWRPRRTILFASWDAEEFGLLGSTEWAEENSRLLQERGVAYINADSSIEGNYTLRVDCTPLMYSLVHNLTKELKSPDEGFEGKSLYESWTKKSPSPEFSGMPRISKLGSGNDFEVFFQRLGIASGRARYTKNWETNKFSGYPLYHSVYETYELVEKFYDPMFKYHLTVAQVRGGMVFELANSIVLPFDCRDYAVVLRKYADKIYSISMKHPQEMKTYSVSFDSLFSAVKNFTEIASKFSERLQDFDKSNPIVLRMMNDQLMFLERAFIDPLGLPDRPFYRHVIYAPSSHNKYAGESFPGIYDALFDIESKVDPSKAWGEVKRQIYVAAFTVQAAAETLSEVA
Protocol: Various compounds of the invention were tested for in vitro inhibition of NAALADase activity. The average IC50 values of the tested compounds are provided bewlow in Table II.
Protocol for Assaying In Vitro Inhibition of NAALADase Activity
The following were combined in assay tubes: 100 μL of 10 mM CoCl2, 250 μL of 200 mM Tris chloride, 100 μL tissue, 100 μL of 10 mM NAALADase inhibitor in Bakers H2O, and Bakers H2O to make a total volume of 950 μL. Each assay tube was then incubated for 10 minutes in a 37° C. water bath. 50 μL of 3-H-NAAG was then added to each assay tube and incubated for an additional 15 minutes in at 37° C. water bath. The assay was stopped by adding 1.0 ml of 0.1 M sodium phosphate.
Glutamate released by the action of the NAALADase enzyme was separated from the assay solution using an anion exchange resin. The resin was equilibrated to 25° C., 2.0 ml of the resin was added to a Pasteur pipette pre-loaded with a single glass bead, and each column was washed twice with distilled H2O. A column was placed over a scintillation vial and 200 μL of an assay sample was loaded onto the column. After draining, glutamate was eluted using two 1.0 ml washes of 1 M formic acid. After addition of 10 ml of scintillation cocktail, each sample was counted for 2 minutes on a scintillation counter.

Row | SMILES | IC50 [6] [µM] | other results
1 | O=C(O)CCC(CCS)C(=O)O (stereo not drawn) [Compound D, 2-(2-sulfanylethyl)pentanedioic acid] | – | hyperalgesic response (withdrawal latency difference score) [1]: completely reversed; nerve conduction velocity ([2]; 10 mg/kg daily, versus diabetic vehicle controls, from 8 weeks to six months, FIG. 12): significantly less severe nerve conduction deficits; withdrawal latency ([2]; 10 mg/kg i.p. daily, versus diabetic vehicle-treated rats, from 4 weeks through six months of treatment, FIG. 11): longer withdrawal latencies; motor and sensory nerve conduction velocities [3]: increased both motor and sensory nerve conduction velocities; neuropathic hyperalgesia (withdrawal latency) [4]: reversed towards normal; neuropathic pain abnormalities ([4]; lower doses 1 and 3 mg/kg, treatment initiated 7 weeks after STZ, FIG. 23): Significant reduction in pain abnormalities; motor nerve conduction velocity [5]: reversed the motor nerve conduction velocity towards normal; motor nerve conduction ([5]; lower doses 1 and 3 mg/kg, treatment from 7 weeks post STZ, 8 weeks after dosing): remained unimproved; sensory nerve conduction ([5]; lower doses 1 and 3 mg/kg, treatment from 7 weeks post STZ, within 4 weeks of treatment): significantly improved towards normal; sensory and motor nerve conduction velocity deficits ([5]; untreated until 60 days after STZ, external CRO, FIGS. 26 and 27): Partial reversal of both deficits
2 | O=C(Cc1ccc(CC(Cc2cccc(C(=O)O)c2)C(=O)O)cc1)NO (stereo not drawn) [Compound 90] | 25.8 | –
3 | O=CN(O)CCC(Oc1cccc(C(=O)O)c1)C(=O)O (stereo not drawn) [Compound 79] | 65.5 | –
4 | COC(=O)c1cccc(CC(C(=O)O)C(=O)NO)c1 (stereo not drawn) [Compound 10, 3-(2-Carboxy-2-hydroxycarbamoyl-ethyl)-benzoic acid methyl ester] | 100 | –
5 | O=C(O)CCC(=O)NO [Compound 84] | 40 | –
6 | O=C(O)CNC(=O)c1cc(C(=O)O)cc(C(=O)NO)c1 [Compound 81] | 9 | –
7 | O=C(O)CCC(Cc1cccc(C(=O)NO)c1)C(=O)O (stereo not drawn) [Compound 94] | 40 | –
8 | O=CN(O)CCCCC(Cc1cccc(C(=O)O)c1)C(=O)O (stereo not drawn) [Compound 76] | 100 | –
9 | O=CN(O)CCC(Cc1cccc(C(=O)O)c1)C(=O)O (stereo not drawn) [Compound 78] | 10.3 | –
10 | O=C(O)c1cccc(CC(CCCS)C(=O)O)c1 (stereo not drawn) [Compound E, 3-carboxy-alpha-(3-mercaptopropyl)benzenepropanoic acid] | – | neuropathic hyperalgesia (withdrawal latency) [4]: reversed towards normal; motor nerve conduction velocity [5]: reversed the motor nerve conduction velocity towards normal
11 | CCC(SCCCC(Cc1cccc(C(=O)O)c1)C(=O)O)C(=O)NO (stereo not drawn) [Compound 19, 3-[2-Carboxy-5-(1-hydroxycarbamoyl-propylsulfanyl)-pentyl]-benzoic acid] | 4 | –

Now from value to compound, other results behind:

Row | IC50 [6] [µM] | SMILES | other results
12 | 2 | O=C(O)CCC(CCC(=O)NO)C(=O)O (stereo not drawn) [Compound 83] | –
13 | 2 | O=C(CCC(Cc1ccccc1C(=O)O)C(=O)O)NO (stereo not drawn) [Compound 73] | –
14 | 3 | O=C(CSCCCC(Cc1ccc(C(=O)O)c(Br)c1)C(=O)O)NO (stereo not drawn) [Compound 65, 2-Bromo-4-(2-carboxy-5-hydroxycarbamoylmethyl-sulfanylpentyl)-benzoic acid] | –
15 | 0.03 | O=C(CCC(Cc1ccc(C(=O)O)cc1)C(=O)O)NO (stereo not drawn) [Compound 75, 4-[2-carboxy-5-(hydroxyamino)-5-oxopentyl]benzoic acid] | –
16 | 0.4 | O=C(CSCCCC(Cc1cccc(C(=O)O)c1)C(=O)O)NO (stereo not drawn) [Compound 17, 3-(2-Carboxy-5-hydroxycarbamoylmethyl-sulfanylpentyl)-benzoic acid] | –
17 | 0.5 | CC(C)(C)c1cc(CC(CCCC(=O)NO)C(=O)O)cc(C(=O)O)c1 (stereo not drawn) [Compound 71] | –
18 | 4 | O=C(O)CCC(C(=O)O)C(=O)NO (stereo not drawn) [Compound 86] | –
19 | 3 | CS(=O)(=O)c1ccc(CC(CCC(=O)NO)C(=O)O)cc1 (stereo not drawn) [Compound 74] | –
20 | 0.05 | O=C(CCC(Cc1cccc(-c2cccc(C(=O)O)c2)c1)C(=O)O)NO (stereo not drawn) [Compound 72] | –
21 | 2.22 | O=CN(O)CCCC(Cc1cccc(C(=O)O)c1)C(=O)O (stereo not drawn) [Compound 77] | –
22 | 0.9 | O=C(O)CCC(CCCC(=O)NO)C(=O)O (stereo not drawn) [Compound 85] | –
23 | 0.06 | CC(C)(C)c1cc(CC(CCC(=O)NO)C(=O)O)cc(C(=O)O)c1 (stereo not drawn) [Compound 2, 3-tert-Butyl-5-(2-carboxy-4-hydroxycarbamoyl-butyl)-benzoic acid] | –
